{
  "source": "paper PMC7717120",
  "about": "(Bioorganic & medicinal chemistry letters, 2015)",
  "key": {"[1]": {"system": "CEM cells"}, "[2]": {"system": "HIV-1", "type": "cell-based"}, "[3]": {"system": "Vero cells", "assay": "Cytotoxicity in Vero cells", "type": "cell-based, African Green monkey"}, "[4]": {"system": "primary human PBM cells", "assay": "Cytotoxicity in primary human PBM cells", "type": "cell-based"}},
  "note": "Entries after “also recorded” stand apart in the source; their conditions may differ.",
  "data": [
    {"smiles": "Cc1c2c(nn1CC(=O)NCc1ccccc1Cl)-c1ccccc1S(=O)(=O)N2C", "note": "[Compound 6a]", "values": [
      {"measurement": "Toxicity in CEM cells (in words)", "setting": "[1]", "result": "no toxicity"},
      {"measurement": "Anti-HIV-1 activity (in words)", "setting": "[2]", "result": "active"},
      {"measurement": "Toxicity in Vero cells (in words)", "setting": "[3]", "result": "toxic; also recorded: displayed toxicity"},
      {"measurement": "Toxicity in primary human PBM cells (in words)", "setting": "[4]", "result": "no toxicity"}
    ]},
    {"smiles": "Cc1c2c(nn1CC(=O)NCc1ccc(F)cc1)-c1ccccc1S(=O)(=O)N2C", "note": "[Compound 6c]", "values": [
      {"measurement": "Toxicity in CEM cells (in words)", "setting": "[1]", "result": "toxic"}
    ]},
    {"smiles": "Cc1c2c(nn1CC(=O)NCc1ccccc1Br)-c1ccccc1S(=O)(=O)N2C", "note": "[Compound 6d]", "values": [
      {"measurement": "Toxicity in CEM cells (in words)", "setting": "[1]", "result": "toxic"},
      {"measurement": "Anti-HIV-1 activity (in words)", "setting": "[2]", "result": "active"},
      {"measurement": "Toxicity in Vero cells (in words)", "setting": "[3]", "result": "toxic"}
    ]},
    {"smiles": "COc1ccccc1CNC(=O)Cn1nc2c(c1C)N(C)S(=O)(=O)c1ccccc1-2", "note": "[Compound 6e]", "values": [
      {"measurement": "Toxicity in CEM cells (in words)", "setting": "[1]", "result": "no toxicity"},
      {"measurement": "Anti-HIV-1 activity (in words)", "setting": "[2]", "result": "active"},
      {"measurement": "Toxicity in Vero cells (in words)", "setting": "[3]", "result": "no toxicity"},
      {"measurement": "Toxicity in primary human PBM cells (in words)", "setting": "[4]", "result": "no toxicity"}
    ]},
    {"smiles": "COc1cccc(CNC(=O)Cn2nc3c(c2C)N(C)S(=O)(=O)c2ccccc2-3)c1", "note": "[Compound 6f]", "values": [
      {"measurement": "Toxicity in CEM cells (in words)", "setting": "[1]", "result": "toxic"},
      {"measurement": "Toxicity in Vero cells (in words)", "setting": "[3]", "result": "toxic"},
      {"measurement": "Toxicity in primary human PBM cells (in words)", "setting": "[4]", "result": "toxic"}
    ]},
    {"smiles": "COc1ccc(CNC(=O)Cn2nc3c(c2C)N(C)S(=O)(=O)c2ccccc2-3)cc1", "note": "[Compound 6g]", "values": [
      {"measurement": "Toxicity in CEM cells (in words)", "setting": "[1]", "result": "no toxicity"},
      {"measurement": "Anti-HIV-1 activity (in words)", "setting": "[2]", "result": "active"},
      {"measurement": "Toxicity in Vero cells (in words)", "setting": "[3]", "result": "no toxicity"},
      {"measurement": "Toxicity in primary human PBM cells (in words)", "setting": "[4]", "result": "no toxicity"}
    ]},
    {"smiles": "Cc1ccc(CNC(=O)Cn2nc3c(c2C)N(C)S(=O)(=O)c2ccccc2-3)cc1", "note": "[Compound 6i]", "values": [
      {"measurement": "Toxicity in CEM cells (in words)", "setting": "[1]", "result": "no toxicity"},
      {"measurement": "Anti-HIV-1 activity (in words)", "setting": "[2]", "result": "active"},
      {"measurement": "Toxicity in Vero cells (in words)", "setting": "[3]", "result": "no toxicity"},
      {"measurement": "Toxicity in primary human PBM cells (in words)", "setting": "[4]", "result": "no toxicity"}
    ]},
    {"smiles": "Cc1c2c(nn1CC(=O)Nc1ccccc1)-c1ccccc1S(=O)(=O)N2C", "note": "[Compound 7a]", "values": [
      {"measurement": "Anti-HIV-1 activity (in words)", "setting": "[2]", "result": "effective inhibitors; also recorded: active"}
    ]},
    {"smiles": "Cc1c2c(nn1CC(=O)Nc1ccccc1F)-c1ccccc1S(=O)(=O)N2C", "note": "[Compound 7b]", "values": [
      {"measurement": "Anti-HIV-1 activity (in words)", "setting": "[2]", "result": "effective inhibitors; also recorded: active"}
    ]},
    {"smiles": "Cc1c2c(nn1CC(=O)Nc1ccccc1Br)-c1ccccc1S(=O)(=O)N2C", "note": "[Compound 7c]", "values": [
      {"measurement": "Anti-HIV-1 activity (in words)", "setting": "[2]", "result": "effective inhibitors; also recorded: active"}
    ]},
    {"smiles": "Cc1c2c(nn1CC(=O)Nc1cccc(Br)c1)-c1ccccc1S(=O)(=O)N2C", "note": "[Compound 7d]", "values": [
      {"measurement": "Anti-HIV-1 activity (in words)", "setting": "[2]", "result": "effective inhibitors; also recorded: active"}
    ]},
    {"smiles": "COc1cccc(NC(=O)Cn2nc3c(c2C)N(C)S(=O)(=O)c2ccccc2-3)c1", "note": "[Compound 7e]", "values": [
      {"measurement": "Anti-HIV-1 activity (in words)", "setting": "[2]", "result": "effective inhibitors; also recorded: active"},
      {"measurement": "Toxicity in Vero cells (in words)", "setting": "[3]", "result": "no toxicity"}
    ]}
  ]
}
